Peptide text beside a SMILES is read from it.
What was measured:
[1] = system: Escherichia coli ATCC 25922; details: ATCC 25922
Method: (§1) Lyophilized peptides were weighed on a Microbalance (Mettler MT5) and dissolved in sterile water to a final concentration of 1 mg/mL. Stock solutions were kept at +4° C., light protected.
(§2) Colonies of the microorganisms were diluted in saline (0.85%, NaCl) and adjusted using a McFarland reader (bioMérieux SA, Marcy-l'Etoile, France) to 0.5 McFarland standard. Subsequently, the bacterial suspension was diluted in Mueller-Hinton II (MHII, cation adjusted) broth to give approximately 5×10^5 colony forming units (CFU/mL).
(§3) 10^6 colony forming units (CFU)/mL. Aliquots (90 μl) of inoculate were added to 10 μl of water+P-80 (Polysorbate 80, 0.002% final concentration) containing the peptide in serial two-fold dilutions at 10 fold final concentration. The following microorganisms were used to determine antibiotic selectivity of the peptides: Escherichia coli ATCC 25922, Escherichia coli MCR-1 Af 45 and Klebsiella pneumoniae SSI3010.

[2] = system: Escherichia coli MCR-1 Af 45; details: MCR-1 Af 45
Method: as §1, §2, §3

[3] = system: Klebsiella pneumoniae SSI3010; details: SSI3010
Method: as §1, §2, §3

[4] = system: human red blood cells (hRBC); assay: Hemolysis of human red blood cells; assay type: cell-based; details: red cells of human, 1 h
Method: Lyophilized peptides were weighed on a Microbalance (Mettler MT5) and dissolved in sterile water to a final concentration of 1 mg/mL. Stock solutions were kept at +4° C., light protected. The peptides were tested for their hemolytic activity against human red blood cells (hRBC). Fresh hRBC were washed three times with phosphate buffered saline (PBS) and centrifuged for 5 min at 3000×g. Compounds (200 μg/mL) were incubated with 20% hRBC (v/v) for 1 h at 37° C. and shaking at 300 rpm. […] The samples were centrifuged, the supernatants were 8-fold diluted in PBS buffer and the optical densities (OD) were measured at 540 nm. […] Percent hemolysis was calculated as follows: (OD540peptide/OD540H2O)×100%.

SMILES | Escherichia coli ATCC 25922 MIC [1] | Escherichia coli MCR-1 Af 45 MIC [2] | Klebsiella pneumoniae SSI3010 MIC [3] | Hemolysis at 0.2 g/L [4]
CCCC[C@H](NC(=O)[C@H](CCCNC(=N)N)NC(=O)[C@H](CCN)NC(=O)[C@@H]1CSSC[C@H](NC(=O)[C@H](Cc2ccc(O)cc2)NC(=O)[C@@H](NC(=O)[C@@H](NC(=O)[C@@H]2CCCN2C(=O)[C@@H](NC(=O)[C@H](N)CCCCN)C(C)C)[C@@H](C)CC)[C@@H](C)CC)C(=O)N[C@@H](CC(N)=O)C(=O)N[C@@H](CCCNC(=N)N)C(=O)N[C@@H](CCCNC(=N)N)C(=O)N[C@@H]([C@@H](C)O)C(=O)N[C@H](CCN)C(=O)N[C@@H](CCCCN)C(=O)N1)C(=O)O [Example 1] (HELM PEPTIDE1{[dK].V.P.I.I.Y.C.N.R.R.T.[NCC[C@@H](N[*:1])C(=O)[*:2]].K.C.[Dab].R.[Nle]}$PEPTIDE1,PEPTIDE1,7:R3-14:R3$$$V2.0) | 0.0625 µg/mL | 0.0625 µg/mL | 0.125 µg/mL | 0%
CCCC[C@H](NC(=O)[C@H](CCCNC(=N)N)NC(=O)[C@H](CCN)NC(=O)[C@@H]1CSSC(C)(C)[C@H](NC(=O)[C@H](Cc2ccc(O)cc2)NC(=O)[C@@H](NC(=O)[C@@H](NC(=O)[C@@H]2CCCN2C(=O)[C@@H](NC(=O)[C@@H]2CCCN2)C(C)C)[C@@H](C)CC)[C@@H](C)CC)C(=O)N[C@@H](CC(N)=O)C(=O)N[C@@H](CCCNC(=N)N)C(=O)N[C@@H](CCN)C(=O)N[C@@H]([C@@H](C)O)C(=O)N[C@H](CCN)C(=O)N[C@@H](CCCCN)C(=O)N1)C(=O)O [Example 2, Pro-Val-Pro-Ile-Ile-Tyr-Pen-Asn-Arg-Dab-Thr-^DDab-Lys-Cys-Dab-Arg-Nle] (HELM PEPTIDE1{P.V.P.I.I.Y.[Pen].N.R.[Dab].T.[NCC[C@@H](N[*:1])C(=O)[*:2]].K.C.[Dab].R.[Nle]}$PEPTIDE1,PEPTIDE1,7:R3-14:R3$$$V2.0) | 0.0625 µg/mL | 0.0625 µg/mL | 0.25 µg/mL | 0%
CCCC[C@H](NC(=O)[C@H](CCCNC(=N)N)NC(=O)[C@H](CCC(N)=O)NC(=O)[C@@H]1CSSC(C)(C)[C@H](NC(=O)[C@H](Cc2ccc(O)cc2)NC(=O)[C@@H](NC(=O)[C@@H](NC(=O)[C@@H]2C[C@@H](N)CN2C(=O)[C@@H](NC(=O)[C@@H]2CCCN2)C(C)C)[C@@H](C)CC)[C@@H](C)CC)C(=O)N[C@@H](CC(N)=O)C(=O)N[C@@H](CCCNC(=N)N)C(=O)N[C@@H](CCN)C(=O)N[C@@H]([C@@H](C)O)C(=O)N[C@H](CCN)C(=O)N[C@@H](CCCCN)C(=O)N1)C(=O)O [Example 3, Pro-Val-Pro((4R)NH2)-Ile-Ile-Tyr-Pen-Asn-Arg-Dab-Thr-^DDab-Lys-Cys-Gln-Arg-Nle] (HELM PEPTIDE1{P.V.[N[C@@H]1C[C@@H](C(=O)[*:2])N([*:1])C1].I.I.Y.[Pen].N.R.[Dab].T.[NCC[C@@H](N[*:1])C(=O)[*:2]].K.C.Q.R.[Nle]}$PEPTIDE1,PEPTIDE1,7:R3-14:R3$$$V2.0) | 0.125 µg/mL | 0.25 µg/mL | 0.25 µg/mL | 0%
CCCC[C@H](NC(=O)[C@H](CCCNC(=N)N)NC(=O)[C@H](CCN)NC(=O)[C@@H]1CSSC(C)(C)[C@H](NC(=O)[C@H](Cc2ccc(O)cc2)NC(=O)[C@@H](NC(=O)[C@@H](NC(=O)[C@@H]2CCCN2C(=O)[C@@H](NC(=O)[C@@H]2C[C@@H](N)CN2)C(C)C)[C@@H](C)CC)[C@@H](C)CC)C(=O)N[C@@H](CC(N)=O)C(=O)N[C@@H](CCCNC(=N)N)C(=O)N[C@@H](CCN)C(=O)N[C@@H]([C@@H](C)O)C(=O)N[C@H](CCN)C(=O)N[C@@H](CCCCN)C(=O)N1)C(=O)O [Example 4, Pro((4R)NH2)-Val-Pro-Ile-Ile-Tyr-Pen-Asn-Arg-Dab-Thr-^DDab-Lys-Cys-Dab-Arg-Nle] (HELM PEPTIDE1{[N[C@H]1CN[C@H](C(=O)[*:2])C1].V.P.I.I.Y.[Pen].N.R.[Dab].T.[NCC[C@@H](N[*:1])C(=O)[*:2]].K.C.[Dab].R.[Nle]}$PEPTIDE1,PEPTIDE1,7:R3-14:R3$$$V2.0) | 0.125 µg/mL | 0.125 µg/mL | 0.125 µg/mL | 0%
CCCC[C@H](NC(=O)[C@H](CCCNC(=N)N)NC(=O)[C@H](CCN)NC(=O)[C@@H]1CSSC(C)(C)[C@H](NC(=O)[C@H](Cc2ccc(O)cc2)NC(=O)[C@@H](NC(=O)[C@@H](NC(=O)[C@@H]2C[C@@H](N)CN2C(=O)[C@@H](NC(=O)[C@@H]2CCCN2)C(C)C)[C@@H](C)CC)[C@@H](C)CC)C(=O)N[C@@H](CC(N)=O)C(=O)N[C@@H](CCCNC(=N)N)C(=O)N[C@@H](CCN)C(=O)N[C@@H]([C@@H](C)O)C(=O)N[C@H](CCN)C(=O)N[C@@H](CCCCN)C(=O)N1)C(=O)O [Example 5, Pro-Val-Pro((4R)NH2)-Ile-Ile-Tyr-Pen-Asn-Arg-Dab-Thr-^DDab-Lys-Cys-Dab-Arg-Nle] (HELM PEPTIDE1{P.V.[N[C@@H]1C[C@@H](C(=O)[*:2])N([*:1])C1].I.I.Y.[Pen].N.R.[Dab].T.[NCC[C@@H](N[*:1])C(=O)[*:2]].K.C.[Dab].R.[Nle]}$PEPTIDE1,PEPTIDE1,7:R3-14:R3$$$V2.0) | 0.0625 µg/mL | 0.0625 µg/mL | 0.25 µg/mL | 0%
CCCC[C@H](NC(=O)[C@H](CCCNC(=N)N)NC(=O)[C@H](CCN)NC(=O)[C@@H]1CSSC(C)(C)[C@H](NC(=O)[C@H](Cc2ccc(O)cc2)NC(=O)[C@@H](NC(=O)[C@@H](NC(=O)[C@@H]2CCCN2C(=O)[C@@H](NC(=O)CNCCN)C(C)C)[C@@H](C)CC)[C@@H](C)CC)C(=O)N[C@@H](CC(N)=O)C(=O)N[C@@H](CCCNC(=N)N)C(=O)N[C@@H](CCN)C(=O)N[C@@H]([C@@H](C)O)C(=O)N[C@H](CCN)C(=O)N[C@@H](CCCCN)C(=O)N1)C(=O)O [Example 6, Ndab-Val-Pro-Ile-Ile-Tyr-Pen-Asn-Arg-Dab-Thr-^DDab-Lys-Cys-Dab-Arg-Nle] (HELM PEPTIDE1{[NCCNCC(=O)[*:2]].V.P.I.I.Y.[Pen].N.R.[Dab].T.[NCC[C@@H](N[*:1])C(=O)[*:2]].K.C.[Dab].R.[Nle]}$PEPTIDE1,PEPTIDE1,7:R3-14:R3$$$V2.0) | 0.125 µg/mL | 0.125 µg/mL | 0.25 µg/mL | 0%
CCCC[C@H](NC(=O)[C@H](CCCNC(=N)N)NC(=O)[C@H](CCN)NC(=O)[C@@H]1CSSC(C)(C)[C@H](NC(=O)[C@H](Cc2ccc(O)cc2)NC(=O)[C@@H](NC(=O)[C@@H](NC(=O)CN(CCN)C(=O)[C@@H](NC(=O)[C@@H]2CCCN2)C(C)C)[C@@H](C)CC)[C@@H](C)CC)C(=O)N[C@@H](CC(N)=O)C(=O)N[C@@H](CCCNC(=N)N)C(=O)N[C@@H](CCN)C(=O)N[C@@H]([C@@H](C)O)C(=O)N[C@H](CCN)C(=O)N[C@@H](CCCCN)C(=O)N1)C(=O)O [Example 7, Pro-Val-Ndab-Ile-Ile-Tyr-Pen-Asn-Arg-Dab-Thr-^DDab-Lys-Cys-Dab-Arg-Nle] (HELM PEPTIDE1{P.V.[NCCN(CC(=O)[*:2])[*:1]].I.I.Y.[Pen].N.R.[Dab].T.[NCC[C@@H](N[*:1])C(=O)[*:2]].K.C.[Dab].R.[Nle]}$PEPTIDE1,PEPTIDE1,7:R3-14:R3$$$V2.0) | 0.125 µg/mL | 0.25 µg/mL | 0.25 µg/mL | 0%
CC[C@H](C)[C@H](NC(=O)[C@@H]1C[C@@H](O)CN1C(=O)[C@@H](NC(=O)[C@@H]1C[C@@H](N)CN1C(=O)[C@H](CCCCN)NC(=O)[C@@H](N)CCCCN)C(C)C)C(=O)N[C@H](C(=O)N[C@@H](Cc1ccc(O)cc1)C(=O)N[C@@H]1C(=O)N[C@@H](CC(N)=O)C(=O)N[C@@H](CCCNC(=N)N)C(=O)N[C@@H](CCN)C(=O)N[C@@H]([C@@H](C)O)C(=O)N[C@H](CCN)C(=O)N[C@@H](CCCCN)C(=O)N[C@H](C(=O)N[C@@H](CCN)C(=O)N[C@@H](CCCNC(=N)N)C(=O)N[C@@H](Cc2ccc(O)cc2)C(=O)O)CSSC1(C)C)[C@@H](C)O [Example 127, Lys-Lys-Pro((4R)NH2)-Val-Hyp-Ile-Thr-Tyr-Pen-Asn-Arg-Dab-Thr-^DDab-Lys-Cys-Dab-Arg-Tyr] (HELM PEPTIDE1{K.K.[N[C@@H]1C[C@@H](C(=O)[*:2])N([*:1])C1].V.[Hyp].I.T.Y.[Pen].N.R.[Dab].T.[NCC[C@@H](N[*:1])C(=O)[*:2]].K.C.[Dab].R.Y}$PEPTIDE1,PEPTIDE1,9:R3-16:R3$$$V2.0; N-terminus and C-terminus assumed) | 0.0625 µg/mL | – | 0.0625 µg/mL | 0%

From US20230295234A1, “ANTIMICROBIAL PEPTIDOMIMETICS” (SPEXIS AG, priority 2020, published 2023)
